Laboratory results: patent US8685726B2, “Small molecules supporting pluripotent cell growth and methods thereof” (Viacyte, Inc., priority 2009, dated 2014)

Tests used:
hES cells = assay: Low-density real-time cell index monitoring (RT-CES impedance reader); type: cell-based, human; details: for time after plating at which cell index rises above background / expansion detectable: 50 μM each factor; for time after plating at which cell index rises above background / expansion detectable / lowest concentration that elicited an effect: StemPro hESC SFM; for lowest concentration that elicited an effect: titration
Experimental: FIG. 4. Titration of NE and ACh using the RT-CES impedance reader. 1000 hES cells/well were plated in StemPro® hESC SFM containing the indicated concentrations of small molecules (in μM). In such an assay, the timing of when the cell index rises is associated with the proportion of cells that survive and expand at low density.
FIG. 5. Combined effects of small molecules compound combinations in low cell density assays. (A) 1000 hES cells/well were plated in StemPro® hESC SFM containing small molecules at 50 μM (NE, ACh, Adenosine, GABA) or 10 μM (Y27632). The assay was carried out over 5 days using the RT-CES system.
FIG. 6. […] 1000 hES cells/well were plated in StemPro® hESC SFM containing Heregulin, IGF1 and Activin (HIA) and the indicated small molecules. […] Compounds were tested at 10 μM. The DMSO trace is an average of 8 wells. […] Compounds were tested at the indicated concentrations.
FIG. 7. […] 1000 hES cells/well were plated in StemPro® hESC SFM containing the indicated combinations of growth factors and small molecules. Heregulin (H), LR3-IGF1 (I), Activin (A).
FIG. 9. Low-density RT-CES assays of combinations of growth factors and neurotransmitters. 1000 hES cells/well were plated in StemPro® hESC SFM containing the indicated combinations of growth factors and small molecules. Heregulin (H), LR3-IGF1 (I), Activin (A). Small molecules were tested at 50 μM.
Furthermore, pluripotent cells can also be grown in 96-well culture devices that provide real-time measurements of impedance, which can be used to measure cell proliferation and viability using the RT-CES™ methods from ACEA Biosciences, Inc. (www (dot) aceabio (dot) com). Such an approach would enable a label-free identification and quantification of subtle or immediate effects on differentiable cells, as well as measurements of proliferation, apoptosis and changes to morphology, in real time.
To examine more closely the potency of individual neurotransmitters and determine if synergies exist between different factors, low-density assays were performed in real time using an impedance reader. The ACEA biosciences RT-CES system uses 96-well trays that contain embedded microsensors to monitor changes in electrical impedance, which is translated into a measure of cell index. Any overt alteration within a cell culture can be detected, including but not limited to cell proliferation, migration, cell spreading, apoptosis, differentiation and the like. […] Once an undifferentiated culture becomes confluent the cell index remains high, but tends to go down and up (scallop) between daily feedings. Conversely, differentiation is typically indicated by the appearance of distinctive patterns, such as peaks and troughs in the cell index, likely indicative of an epithelial-to-mesenchymal transition, flattening, cell migration, apoptosis or similar differentiation and growth related changes.
Human ES cells were plated at low density, 1000 cells/well, in RT-CES trays and cultured for 10 days (FIG. 4). Cells were plated directly in StemPro® hESC SFM containing carrier control (DMSO), NE, or ACh.

[1] = system: hES cells (e.g., BGO2 cells); assay: Low-density colony forming / colony counting assay (AP+ colonies); type: cell-based, human
Experimental: FIG. 2. Low density plating assay of hES cells (e.g., BGO2 cells). 10000 cells/well were plated in 6-well trays in StemPro® hESC SFM (Life Technologies) medium and stained with alkaline phosphatase (AP+) after 7 days. Y (Y27632), ACh (acetylcholine), NMDA (N-methyl-D-aspartic acid), NE ((−)-Norepinephrine), NE.Bit ((±)-Norepinephrine (+)-bitartrate). Compounds were added at 10 or 50 μM as indicated.
FIG. 3. Low density plating assay of hES cells. (A) 200-10000 cells/well were plated in […] trays in StemPro® hESC SFM medium, or StemPro® hESC SFM +50 μM NE, or +50 μM ACh, and stained with alkaline phosphatase (AP+) after 8 days. […] ACh (acetylcholine), NE ((±)-Norepinephrine (+)-bitartrate). […]
About 10^4 hES cells/well were plated in 6-well trays in StemPro® hESC SFM, in the presence of different compounds and cultured for about 7 days. The cultures were then fixed, stained for alkaline phosphatase activity and colonies were counted (FIG. 2). […] The (±)-Norepinephrine (+)-bitartrate salt was used for all subsequent experiments involving norepinephrine (NE) unless specifically described otherwise.
A similar colony counting experiment was performed using a range of cell densities (FIG. 3). […] See Robins and Schulz 2009, supra. […]

Compound	time after plating at which cell index rises above background / expansion detectable (hES cells; 1000 cells/well)	lowest concentration that elicited an effect (hES cells; 1000 cells/well) [µM]	fewest plated cells per well at which colonies were observed ([1]; 50 μM, 8 days) [plated cells]	effect on low-density survival/proliferation (hES cells; 1 μM, 1000 cells/well, 10 days)	survival and expansion at low density, single factors and two-factor combinations (hES cells; 50 μM (NE, ACh, Adenosine, GABA) or 10 μM (Y27632), 1000 cells/well, 5 days)	time to apparent confluence (hES cells; 70 μM, 1000 cells/well) [days]	time to apparent confluence (hES cells; 100 μM, 1000 cells/well) [days]	time at which increases in cell index were first detected (hES cells; 5, 10 and 50 μM, 1000 cells/well) [days]	survival/expansion on addition of neurotransmitter (hES cells; HAI or HI background, 1000 cells/well)	survival/expansion (hES cells; StemPro hESC SFM HI background)	rises in impedance / survival and expansion with neurotransmitters (hES cells; small molecules 50 μM, 1000 cells/well, growth factor combinations)	colonies detected compared to StemPro hESC SFM medium alone ([1]; 50 μM, 200-10000 cells/well, 8 days)	support of colony formation at low density ([1]; 10^4 cells/well, StemPro hESC SFM, 7 days, compounds at 10 or 50 μM)
CC(=O)OCC[N+](C)(C)C [ACh, acetylcholine]	about 3 days	5	500										
NCC(O)c1ccc(O)c(O)c1 (racemic) [NE, (±)-Norepinephrine (+)-bitartrate]	about 3 days	5	1000	did not appear to affect low-density survival/proliferation	effective survival and expansion	~9	~10	~6.5	substantially improved survival/expansion	maximal survival/expansion	detected much earlier	More than four times as many colonies	supported elevated colony formation
